Measurements published in the NIST ThermoML archive (doi:10.1016/j.jct.2016.10.023).

Test: xn = mol fraction of the nth substance listed
Conditions: Constant-volume piezometry

CCCCC [pentane] + CCCO
Liquid
Conditions | mass density [kg/m3]
305.05 K, x1 = 0.8 | 631.08
312.65 K, x1 = 0.8 | 623.57
317.85 K, x1 = 0.5 | 663.63
324.25 K, x1 = 0.8 | 611.04
334.25 K, x1 = 0.8 | 601.01
351.05 K, x1 = 0.5 | 631.49
353.55 K, x1 = 0.8 | 575.9
368.45 K, x1 = 0.5 | 611.87
372.15 K, x1 = 0.8 | 553.38
381.85 K, x1 = 0.2 | 663.76
383.55 K, x1 = 0.5 | 592.03
394.65 K, x1 = 0.8 | 524.7
396.15 K, x1 = 0.2 | 640.78
410.15 K, x1 = 0.8 | 499.43
410.75 K, x1 = 0.5 | 551.97
415.75 K, x1 = 0.2 | 618.67
425.55 K, x1 = 0.8 | 469.31
429.15 K, x1 = 0.2 | 598.54
431.15 K, x1 = 0.5 | 522.22

Conditions | mass density [kg/m3]
308.15 K, 2402 kPa, Liquid, x1 = 0.8 | 630.94
313.15 K, 157 kPa, Liquid, x1 = 0.8 | 623.55
313.15 K, 6022 kPa, Liquid, x1 = 0.8 | 630.7
314.15 K, 765 kPa, Liquid, x1 = 0.8 | 623.51
318.15 K, 3615 kPa, Liquid, x1 = 0.8 | 623.33
323.15 K, 3447 kPa, Liquid, x1 = 0.5 | 663.38
323.15 K, 7107 kPa, Liquid, x1 = 0.8 | 623.1
323.15 K, 13373 kPa, Liquid, x1 = 0.8 | 630.24
325.15 K, 801 kPa, Liquid, x1 = 0.8 | 611.01
333.15 K, 5935 kPa, Liquid, x1 = 0.8 | 610.66
333.15 K, 9686 kPa, Liquid, x1 = 0.5 | 662.92
333.15 K, 14195 kPa, Liquid, x1 = 0.8 | 622.65
333.15 K, 20785 kPa, Liquid, x1 = 0.8 | 629.77
335.15 K, 769 kPa, Liquid, x1 = 0.8 | 600.98
338.15 K, 2550 kPa, Liquid, x1 = 0.8 | 600.85
343.15 K, 5592 kPa, Liquid, x1 = 0.8 | 600.65
343.15 K, 12414 kPa, Liquid, x1 = 0.8 | 610.23
343.15 K, 16000 kPa, Liquid, x1 = 0.5 | 662.46
343.15 K, 21183 kPa, Liquid, x1 = 0.8 | 622.2
343.15 K, 28234 kPa, Liquid, x1 = 0.8 | 629.31
351.15 K, 441 kPa, Liquid, x1 = 0.5 | 631.49
353.15 K, 1647 kPa, Liquid, x1 = 0.5 | 631.4
353.15 K, 11601 kPa, Liquid, x1 = 0.8 | 600.23
353.15 K, 18747 kPa, Liquid, x1 = 0.8 | 609.8
353.15 K, 22340 kPa, Liquid, x1 = 0.5 | 661.99
353.15 K, 28151 kPa, Liquid, x1 = 0.8 | 621.75
353.15 K, 35636 kPa, Liquid, x1 = 0.8 | 628.84
355.15 K, 1219 kPa, Liquid, x1 = 0.8 | 575.84
358.15 K, 2713 kPa, Liquid, x1 = 0.8 | 575.73
363.15 K, 5237 kPa, Liquid, x1 = 0.8 | 575.54
363.15 K, 7726 kPa, Liquid, x1 = 0.5 | 630.97
363.15 K, 17738 kPa, Liquid, x1 = 0.8 | 599.81
363.15 K, 25314 kPa, Liquid, x1 = 0.8 | 609.37
363.15 K, 28606 kPa, Liquid, x1 = 0.5 | 661.53
363.15 K, 35183 kPa, Liquid, x1 = 0.8 | 621.29
363.15 K, 42979 kPa, Liquid, x1 = 0.8 | 628.38
372.65 K, 854 kPa, Liquid, x1 = 0.8 | 553.36
373.15 K, 1058 kPa, Liquid, x1 = 0.8 | 553.35
373.15 K, 3137 kPa, Liquid, x1 = 0.5 | 611.68
373.15 K, 10414 kPa, Liquid, x1 = 0.8 | 575.16
373.15 K, 13490 kPa, Liquid, x1 = 0.5 | 630.54
373.15 K, 23787 kPa, Liquid, x1 = 0.8 | 599.4
373.15 K, 31687 kPa, Liquid, x1 = 0.8 | 608.94
373.15 K, 34882 kPa, Liquid, x1 = 0.5 | 661.07
373.15 K, 42247 kPa, Liquid, x1 = 0.8 | 620.84
378.15 K, 5874 kPa, Liquid, x1 = 0.5 | 611.47
383.15 K, 1487 kPa, Liquid, x1 = 0.2 | 663.69
383.15 K, 4567 kPa, Liquid, x1 = 0.5 | 602.79
383.15 K, 5590 kPa, Liquid, x1 = 0.8 | 552.99
383.15 K, 8687 kPa, Liquid, x1 = 0.5 | 611.26
383.15 K, 15678 kPa, Liquid, x1 = 0.8 | 574.78
383.15 K, 19194 kPa, Liquid, x1 = 0.5 | 630.11
383.15 K, 29885 kPa, Liquid, x1 = 0.8 | 598.99
383.15 K, 38107 kPa, Liquid, x1 = 0.8 | 608.51
384.15 K, 1047 kPa, Liquid, x1 = 0.5 | 592.01
393.15 K, 941 kPa, Liquid, x1 = 0.5 | 579.06
393.15 K, 5707 kPa, Liquid, x1 = 0.5 | 591.66
393.15 K, 8491 kPa, Liquid, x1 = 0.2 | 663.21
393.15 K, 10012 kPa, Liquid, x1 = 0.5 | 602.39
393.15 K, 10151 kPa, Liquid, x1 = 0.8 | 552.64
393.15 K, 14096 kPa, Liquid, x1 = 0.5 | 610.86
393.15 K, 20747 kPa, Liquid, x1 = 0.8 | 574.4
393.15 K, 25038 kPa, Liquid, x1 = 0.5 | 629.68
393.15 K, 36012 kPa, Liquid, x1 = 0.8 | 598.57
393.15 K, 44637 kPa, Liquid, x1 = 0.8 | 608.08
395.15 K, 1157 kPa, Liquid, x1 = 0.8 | 524.69
398.15 K, 2324 kPa, Liquid, x1 = 0.8 | 524.59
403.15 K, 905 kPa, Gas, x1 = 0.8 | 22.65
403.15 K, 4215 kPa, Liquid, x1 = 0.8 | 524.43
403.15 K, 4306 kPa, Liquid, x1 = 0.2 | 640.49
403.15 K, 5622 kPa, Liquid, x1 = 0.5 | 578.69
403.15 K, 10647 kPa, Liquid, x1 = 0.5 | 591.27
403.15 K, 14687 kPa, Liquid, x1 = 0.8 | 552.29
403.15 K, 15313 kPa, Liquid, x1 = 0.2 | 662.74
403.15 K, 15471 kPa, Liquid, x1 = 0.5 | 601.98
403.15 K, 19586 kPa, Liquid, x1 = 0.5 | 610.45
403.15 K, 25962 kPa, Liquid, x1 = 0.8 | 574.02
403.15 K, 30841 kPa, Liquid, x1 = 0.5 | 629.25
403.15 K, 42147 kPa, Liquid, x1 = 0.8 | 598.16
413.15 K, 944 kPa, Gas, x1 = 0.8 | 22.64
413.15 K, 2137 kPa, Liquid, x1 = 0.5 | 551.89
413.15 K, 2268 kPa, Liquid, x1 = 0.8 | 499.34
413.15 K, 7884 kPa, Liquid, x1 = 0.8 | 524.12
413.15 K, 10313 kPa, Liquid, x1 = 0.5 | 578.32
413.15 K, 10612 kPa, Liquid, x1 = 0.2 | 640.04
413.15 K, 15843 kPa, Liquid, x1 = 0.5 | 590.88
413.15 K, 19245 kPa, Liquid, x1 = 0.8 | 551.94
413.15 K, 21025 kPa, Liquid, x1 = 0.5 | 601.58
413.15 K, 22059 kPa, Liquid, x1 = 0.2 | 662.26
413.15 K, 24988 kPa, Liquid, x1 = 0.5 | 610.04
413.15 K, 31136 kPa, Liquid, x1 = 0.8 | 573.65
413.15 K, 36585 kPa, Liquid, x1 = 0.5 | 628.82
414.15 K, 712 kPa, Gas, x1 = 0.5 | 15.6
415.15 K, 715 kPa, Gas, x1 = 0.5 | 15.6
416.15 K, 1229 kPa, Liquid, x1 = 0.2 | 618.66
416.15 K, 1374 kPa, Gas, x1 = 0.8 | 36.88
423.15 K, 737 kPa, Gas, x1 = 0.5 | 15.59
423.15 K, 982 kPa, Gas, x1 = 0.8 | 22.63
423.15 K, 1418 kPa, Gas, x1 = 0.8 | 36.86
423.15 K, 4884 kPa, Liquid, x1 = 0.2 | 618.37
423.15 K, 5404 kPa, Liquid, x1 = 0.8 | 499.05
423.15 K, 5815 kPa, Liquid, x1 = 0.5 | 551.55
423.15 K, 11608 kPa, Liquid, x1 = 0.8 | 523.8
423.15 K, 14921 kPa, Liquid, x1 = 0.5 | 577.95
423.15 K, 16915 kPa, Liquid, x1 = 0.2 | 639.59
423.15 K, 20842 kPa, Liquid, x1 = 0.5 | 590.5
423.15 K, 23598 kPa, Liquid, x1 = 0.8 | 551.59
423.15 K, 26392 kPa, Liquid, x1 = 0.5 | 601.18
423.15 K, 28950 kPa, Liquid, x1 = 0.2 | 661.79
423.15 K, 30447 kPa, Liquid, x1 = 0.5 | 609.63
423.15 K, 36411 kPa, Liquid, x1 = 0.8 | 573.27
426.15 K, 1900 kPa, Liquid, x1 = 0.8 | 469.29
432.15 K, 2018 kPa, Liquid, x1 = 0.5 | 522.19
433.15 K, 760 kPa, Gas, x1 = 0.5 | 15.59
433.15 K, 1023 kPa, Gas, x1 = 0.8 | 22.62
433.15 K, 1472 kPa, Gas, x1 = 0.8 | 36.85
433.15 K, 2403 kPa, Liquid, x1 = 0.5 | 522.16
433.15 K, 3158 kPa, Liquid, x1 = 0.2 | 598.39
433.15 K, 3619 kPa, Liquid, x1 = 0.8 | 469.11
433.15 K, 8493 kPa, Liquid, x1 = 0.8 | 498.76
433.15 K, 9460 kPa, Liquid, x1 = 0.5 | 551.22
433.15 K, 10196 kPa, Liquid, x1 = 0.2 | 617.96
433.15 K, 15352 kPa, Liquid, x1 = 0.8 | 523.48
433.15 K, 19645 kPa, Liquid, x1 = 0.5 | 577.58
433.15 K, 23135 kPa, Liquid, x1 = 0.2 | 639.15
433.15 K, 26095 kPa, Liquid, x1 = 0.5 | 590.11
433.15 K, 28096 kPa, Liquid, x1 = 0.8 | 551.24
433.15 K, 31893 kPa, Liquid, x1 = 0.5 | 600.78
